From patent US20200017495A1, “NOVEL HETEROCYCLIC COMPOUNDS AND THEIR USE IN PREVENTING OR TREATING BACTERIAL INFECTIONS” (priority 2017, published 2020)
Where two headings read alike, the source gives them in different places.

Tests used:
[1] = system: Enterobacter cloacae (ECL) isolates; test: MIC of compounds alone and combined with antibacterials, broth microdilution (CLSI); type: cell-based; settings: Enterobacter cloacae, read-out: MIC
Procedure, shortened: (§1)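 First, log-phase suspensions are brought to 5.10^5 CFU/mL final in ca-MHB; plates then incubate 16-20 h at 35° C in air. Growth is judged visually, giving the compound MIC alone and the antibacterial MIC at each compound concentration.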

[2] = system: Escherichia coli (ECO) isolates; test: as above; type: cell-based; settings: Escherichia coli, read-out: MIC
Procedure, shortened: as §1

## O=C1N2CC(c3ncco3)=CC(C2)N1OC(F)(F)C(=O)[O-].[Li+] (centres unmarked) [AF2]
[1]; ECL 190408, alone
  MIC: 4 µg/mL
[1]; ECL HAN, alone
  MIC: 32 µg/mL
[1]; ECL NEM146383, alone
  MIC: 32 µg/mL
[1]; ECL P99, alone
  MIC: 8 µg/mL
[1]; ECL UFR12, alone
  MIC: 16 µg/mL
[1]; ECL UFR13, alone
  MIC: 16 µg/mL
[1]; ECL UFR14, alone
  MIC: 16 µg/mL
[1]; ECL UFR38, alone
  MIC: 8 µg/mL
[1]; ECL UFR51, alone
  MIC: 8 µg/mL
[1]; ECL UFR60, alone
  MIC: 16 µg/mL
[1]; ECL UFR70, alone
  MIC: 8 µg/mL
[1]; ECL UFR84, alone
  MIC: 32 µg/mL
[1]; ECL UFR85, alone
  MIC: 8 µg/mL
[1]; ECL UFR200, alone
  MIC: 32 µg/mL
[1]; strain ECL UFR192, compound alone
  MIC: 16 µg/mL
[1]; strain ECL UFR193, compound alone
  MIC: 16 µg/mL
[1]; strain ECL UFR194, compound alone
  MIC: 8 µg/mL
[1]; strain ECL UFR195, compound alone
  MIC: 16 µg/mL
[1]; strain ECL UFR196, compound alone
  MIC: 16 µg/mL
[1]; strain ECL UFR197, compound alone
  MIC: 8 µg/mL
[1]; strain ECL UFR198, compound alone
  MIC: 32 µg/mL
[1]; strain ECL UFR203, compound alone
  MIC: 32 µg/mL
[1]; strain ECL UFR214, compound alone
  MIC: 32 µg/mL
[1]; strain ECL UFR252PT, compound alone
  MIC: > 32 µg/mL
[2]; ECO 4133, alone
  MIC: 8 µg/mL
[2]; ECO 5302, alone
  MIC: 4 µg/mL
[2]; ECO 131119, alone
  MIC: 4 µg/mL
[2]; ECO 180070, alone
  MIC: 8 µg/mL
[2]; ECO 190314, alone
  MIC: 8 µg/mL
[2]; ECO 190317, alone
  MIC: 4 µg/mL
[2]; ECO 190457, alone
  MIC: 4 µg/mL
[2]; ECO 190549, alone
  MIC: 4 µg/mL
[2]; ECO 200159, alone
  MIC: 4 µg/mL
[2]; ECO 200259, alone
  MIC: 4 µg/mL
[2]; ECO 200344, alone
  MIC: 8 µg/mL
[2]; ECO 260096, alone
  MIC: 16 µg/mL
[2]; ECO 260304, alone
  MIC: 4 µg/mL
[2]; ECO 260508, alone
  MIC: 8 µg/mL
[2]; ECO (strain number on grid row 356, not shown), alone
  MIC: 8 µg/mL
[2]; ECO UFR17, alone
  MIC: 16 µg/mL
[2]; ECO UFR18, alone
  MIC: 8 µg/mL
[2]; ECO UFR19, alone
  MIC: 8 µg/mL
[2]; ECO UFR32, alone
  MIC: 8 µg/mL
[2]; ECO UFR39, alone
  MIC: 8 µg/mL
[2]; ECO UFR41, alone
  MIC: 8 µg/mL
[2]; ECO UFR45, alone
  MIC: 4 µg/mL
[2]; ECO UFR52, alone
  MIC: 32 µg/mL
[2]; ECO UFR61O, alone
  MIC: 8 µg/mL
[2]; ECO UFR62, alone
  MIC: 8 µg/mL
[2]; ECO UFR74, alone
  MIC: 8 µg/mL
[2]; ECO UFR86, alone
  MIC: 16 µg/mL
[2]; ECO UFR174, alone
  MIC: 2 µg/mL
[2]; ECO UFR176, alone
  MIC: 8 µg/mL
[2]; ECO UFR184, alone
  MIC: 4 µg/mL
[2]; ECO UFR208, alone
  MIC: 16 µg/mL
[2]; ECO UFR209, alone
  MIC: 8 µg/mL
[2]; ECO UFR210, alone
  MIC: 4 µg/mL
[2]; ECO UFR211, alone
  MIC: 4 µg/mL
[2]; ECO UFR212, alone
  MIC: 4 µg/mL
[2]; ECO URF20, alone
  MIC: 4 µg/mL
[2]; strain ECO UFR177, compound alone
  MIC: 4 µg/mL
[2]; strain ECO UFR178, compound alone
  MIC: 8 µg/mL
[2]; strain ECO UFR179, compound alone
  MIC: 4 µg/mL
[2]; strain ECO UFR180, compound alone
  MIC: 4 µg/mL
[2]; strain ECO UFR181, compound alone
  MIC: 16 µg/mL
[2]; strain ECO UFR182, compound alone
  MIC: 8 µg/mL
[2]; strain ECO UFR183, compound alone
  MIC: 32 µg/mL
[2]; strain ECO UFR186, compound alone
  MIC: 8 µg/mL
[2]; strain ECO UFR187, compound alone
  MIC: 16 µg/mL
[2]; strain ECO UFR189, compound alone
  MIC: 4 µg/mL
[2]; strain ECO UFR190, compound alone
  MIC: 8 µg/mL
[2]; strain ECO UFR191, compound alone
  MIC: 8 µg/mL
[2]; strain ECO UFR204, compound alone
  MIC: 8 µg/mL
[2]; strain ECO UFR205, compound alone
  MIC: 8 µg/mL
[2]; strain ECO UFR206, compound alone
  MIC: 16 µg/mL
[2]; strain ECO UFR252GO, compound alone
  MIC: 8 µg/mL
[2]; strain ECO UFR255, compound alone
  MIC: 4 µg/mL
